Biological target: Full-length inactive AKT1 (Homo sapiens, UniProt P31749)
Test: Inactive Akt Alpha Screen Assay
Type: biochemical
Details: AlphaScreen assay (values not marked with *); read-out: Akt1 IC50, (AlphaScreen) (μM) (or if marked with “*” HTRF assay)
Protocol: AKT1 activity was assayed using the GSK3-derived biotinylated peptide substrate, crosstide (biotin-[…]), and AlphaScreen™ (Amplified Luminescent Proximity Homogeneous Assay) technology. AKT1 activation was achieved by the addition of the activating kinases PDK1 and MAPKAPK2, lipid vesicles, and ATP. The extent of peptide phosphorylation was determined using a phospho-AKT substrate antibody and acceptor beads conjugated to Protein A and donor beads conjugated to streptavidin that bind to the biotin on the peptide. Excitation of the donor beads converted ambient oxygen to excited singlet oxygen which, when in close proximity to acceptor beads, reacted with acceptor beads resulting in signal amplification.
Assay plates were incubated for 90 minutes at room temperature in the dark, and the plates were read on a Perkin Elmer Envision Multilabel plate reader (excitation wavelength: […], emission wavelength: 570 nm).

Full-length inactive AKT1, sequence (P31749 whole entry): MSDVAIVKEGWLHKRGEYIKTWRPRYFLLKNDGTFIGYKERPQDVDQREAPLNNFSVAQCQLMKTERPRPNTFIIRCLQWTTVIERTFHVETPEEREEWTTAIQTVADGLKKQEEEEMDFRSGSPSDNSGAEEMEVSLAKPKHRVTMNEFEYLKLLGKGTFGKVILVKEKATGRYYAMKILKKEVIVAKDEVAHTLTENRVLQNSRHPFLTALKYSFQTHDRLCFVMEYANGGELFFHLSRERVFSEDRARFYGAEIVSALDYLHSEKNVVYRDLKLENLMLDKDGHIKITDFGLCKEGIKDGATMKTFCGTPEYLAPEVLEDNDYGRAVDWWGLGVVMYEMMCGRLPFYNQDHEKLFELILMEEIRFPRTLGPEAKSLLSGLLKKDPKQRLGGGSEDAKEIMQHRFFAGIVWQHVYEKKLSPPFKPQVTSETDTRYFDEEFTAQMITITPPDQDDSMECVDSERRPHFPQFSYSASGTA

How did the IC50 turn out when Nc1ncccc1-c1nc2ccc(-c3ccc4c(c3)CC(=O)N4)nc2n1-c1ccc(C2(N)CCC2)cc1 [Example 453, 5-{3-[4-(1-aminocyclobutyl)phenyl]-2-(2-aminopyridin-3-yl)-3H-imidazo[4,5-b]pyridin-5-yl}-1,3-dihydro-2H-indol-2-one] was run?
The IC50 was 0.0028 µM.

With Nc1ncccc1-c1nc2ccc(-c3ccc(O)nc3)nc2n1-c1ccc(C2(N)CCC2)cc1 [Example 447, 5-{3-[4-(1-aminocyclobutyl)phenyl]-2-(2-aminopyridin-3-yl)-3H-imidazo[4,5-b]pyridin-5-yl}pyridin-2-ol] as the molecule, how does the IC50 read?
The IC50 was 0.045 µM.

Which IC50 does the source give for CN(C)C1CCN(c2cccc(-c3ccc4nc(-c5cccnc5N)n(-c5ccc(C6(N)CCC6)cc5)c4n3)c2)CC1 [Example 460, 3-(3-[4-(1-aminocyclobutyl)phenyl]-5-{3-[4-(dimethylamino)piperidin-1-yl]phenyl}-3H-imidazo[4,5-b]pyridin-2-yl)pyridin-2-amine] here?
Its IC50 is 0.011 µM.

How did the IC50 turn out when Nc1ncccc1-c1nc2ccc(-c3ccnc(N4CCOCC4)c3)nc2n1-c1ccc(C2(N)CCC2)cc1 [Example 439, 3-{3-[4-(1-aminocyclobutyl)phenyl]-5-(2-morpholin-4-ylpyridin-4-yl)-3H-imidazo[4,5-b]pyridin-2-yl}pyridin-2-amine] was run?
The IC50 was 0.0026 µM.

Same assay, conditions: values not marked with "*": AlphaScreen assay; read-out: Akt1 IC50, (AlphaScreen)

With COc1ccc(C(=O)NCc2ccc(-n3c(-c4cccnc4N)nc4cccnc43)cc2)cc1 [Example 54] as the molecule, how does the IC50 read?
Its IC50 is 0.711 µM.

Nc1ncccc1-c1nc2cccnc2n1-c1ccc(CNC(=O)c2cccc(F)c2)cc1 [Example 49] was tested. Which IC50 did it give?
Its IC50 is 0.084 µM.

With Nc1ncccc1-c1nc2cccnc2n1-c1ccc(CNC(=O)c2cccs2)cc1 [Example 48] as the molecule, how does the IC50 read?
Its IC50 is 0.196 µM.

Cc1ccc(NC(=O)Cc2ccc(-n3c(-c4cccnc4N)nc4cccnc43)cc2)cc1 [Example 127] was tested. Which IC50 did it give?
The IC50 was 0.108 µM.

Which IC50 does the source give for CCCCS(=O)(=O)NCc1ccc(-n2c(-c3cccnc3N)nc3cc(Br)cnc32)cc1 [Example 153, N-{4-[2-(2-aminopyridin-3-yl)-6-bromo-3H-imidazo[4,5-b]pyridin-3-yl]benzyl}butane-1-sulfonamide] here?
Its IC50 is 0.44 µM.

Same assay, conditions: values not marked with "*"; read-out: Akt1 IC50, (AlphaScreen)

CC(C)c1ccc(C(=O)NCc2ccc(-n3c(-c4cccnc4N)nc4cc(-c5cccnc5)cnc43)cc2)cc1 [Example 233, N-(4-(2-(2-aminopyridin-3-yl)-6-(pyridin-3-yl)-3H-imidazo[4,5-b]pyridin-3-yl)benzyl)-4-isopropylbenzamide] was tested. Which IC50 did it give?
The IC50 was 0.14 µM.

With CC(=O)Nc1ccc(C(=O)NCc2ccc(-n3c(-c4cccnc4N)nc4ccc(C)nc43)cc2)cc1 [Example 249, 4-acetamido-N-(4-(2-(2-aminopyridin-3-yl)-5-methyl-3H-imidazo[4,5-b]pyridin-3-yl)benzyl)benzamide] as the molecule, how does the IC50 read?
The IC50 was 0.025 µM.

With COc1cccc(-c2ccc3nc(-c4cccnc4N)n(-c4ccc(C5(N)CCC5)cc4)c3n2)c1F [Example 421, 3-{3-[4-(1-aminocyclobutyl)phenyl]-5-(2-fluoro-3-methoxyphenyl)-3H-imidazo[4,5-b]pyridin-2-yl}pyridin-2-amine] as the molecule, how does the IC50 read?
Its IC50 is 0.017 µM.

How did the IC50 turn out when CC(=O)Nc1ccc(-c2ccc3nc(-c4cccnc4N)n(-c4ccc(NC(=O)c5ccccc5)cc4)c3n2)cc1 [Example 253, N-(4-(5-(4-acetamidophenyl)-2-(2-aminopyridin-3-yl)-3H-imidazo[4,5-b]pyridin-3-yl)phenyl)benzamide] was run?
The IC50 was 0.027 µM.

With Nc1ncccc1-c1nc2ccc(-c3ccc(CO)cc3)nc2n1-c1ccc(CNC(=O)c2ccccc2)cc1 [Example 226, N-(4-(2-(2-aminopyridin-3-yl)-5-(4-(hydroxymethyl)phenyl)-3H-imidazo[4,5-b]pyridin-3-yl)benzyl)benzamide] as the molecule, how does the IC50 read?
The IC50 was 0.018 µM.

Which IC50 does the source give for COc1cc(-c2ccc3nc(-c4cccnc4N)n(-c4ccc(C5(N)CCC5)cc4)c3n2)ccc1F [Example 428, 3-{3-[4-(1-aminocyclobutyl)phenyl]-5-(4-fluoro-3-methoxyphenyl)-3H-imidazo[4,5-b]pyridin-2-yl}pyridin-2-amine] here?
The IC50 was 0.0058 µM.

How did the IC50 turn out when CC(=O)Nc1ccc(-c2ccc3nc(-c4cccnc4N)n(-c4ccc(CNC(=O)c5ccccc5)cc4)c3n2)cc1 [Example 236, N-(4-(5-(4-acetamidophenyl)-2-(2-aminopyridin-3-yl)-3H-imidazo[4,5-b]pyridin-3-yl)benzyl)benzamide] was run?
The IC50 was 0.033 µM.

Nc1ncccc1-c1nc2ccc(-c3ccc(O)cc3)nc2n1-c1ccc(CNC(=O)c2cccc(F)c2)cc1 [Example 330, N-(4-(2-(2-aminopyridin-3-yl)-5-(4-hydroxyphenyl)-3H-imidazo[4,5-b]pyridin-3-yl)benzyl)-3-fluorobenzamide] was tested. Which IC50 did it give?
Its IC50 is 0.12 µM.

How did the IC50 turn out when Cc1ccc2cc(NC(=O)Cc3ccc(-n4c(-c5cccnc5N)nc5cc(-c6cccnc6)cnc54)cc3)ccc2n1 [Example 318, 2-(4-(2-(2-aminopyridin-3-yl)-6-(pyridin-3-yl)-3H-imidazo[4,5-b]pyridin-3-yl)phenyl)-N-(2-methylquinolin-6-yl)acetamide] was run?
The IC50 was 0.019 µM.

How did the IC50 turn out when Cc1ccc2cc(NC(=O)Cc3ccc(-n4c(-c5cccnc5N)nc5cc(Br)cnc54)cc3)ccc2n1 [Example 298, 2-(4-(2-(2-aminopyridin-3-yl)-6-bromo-3H-imidazo[4,5-b]pyridin-3-yl)phenyl)-N-(2-methylquinolin-6-yl)acetamide] was run?
The IC50 was 0.014 µM.

Which IC50 does the source give for Nc1ncccc1-c1nc2ccc(-c3c[nH]c(=O)[nH]c3=O)nc2n1-c1ccc(CNC(=O)c2cccc(F)c2)cc1 [Example 311, N-(4-(2-(2-aminopyridin-3-yl)-5-(2,4-dioxo-1,2,3,4-tetrahydropyrimidin-5-yl)-3H-imidazo[4,5-b]pyridin-3-yl)benzyl)-3-fluorobenzamide] here?
Its IC50 is 0.029 µM.

How did the IC50 turn out when Nc1ncccc1-c1nc2cc(-c3ccccc3)cnc2n1-c1ccc(C2(N)CCC2)cc1 [Example 358, 3-(3-(4-(1-aminocyclobutyl)phenyl)-6-phenyl-3H-imidazo[4,5-b]pyridin-2-yl)pyridin-2-amine] was run?
The IC50 was 0.055 µM.

With Cc1ccc(C)c(S(=O)(=O)NCc2ccc(-n3c(-c4cccnc4N)nc4cc(Br)cnc43)cc2)c1 [Example 167, N-{4-[2-(2-aminopyridin-3-yl)-6-bromo-3H-imidazo[4,5-b]pyridin-3-yl]benzyl}-2,5-dimethylbenzenesulfonamide] as the molecule, how does the IC50 read?
Its IC50 is 0.48 µM.

Which IC50 does the source give for Nc1ncccc1-c1nc2ccc(-c3ccc(CO)cc3)nc2n1-c1ccc(C2(N)CCC2)cc1 [Example 383, (4-(3-(4-(1-aminocyclobutyl)phenyl)-2-(2-aminopyridin-3-yl)-3H-imidazo[4,5-b]pyridin-5-yl)phenyl)methanol] here?
Its IC50 is 0.0037 µM.

How did the IC50 turn out when Nc1ncccc1-c1nc2ccc(-c3ccc(N4CCOCC4)nc3)nc2n1-c1ccc(C2(N)CCC2)cc1 [Example 404, 3-{3-[4-(1-aminocyclobutyl)phenyl]-5-(6-morpholin-4-ylpyridin-3-yl)-3H-imidazo[4,5-b]pyridin-2-yl}pyridin-2-amine] was run?
Its IC50 is 0.0078 µM.

Cc1ccc2cc(C(=O)NCc3ccc(-n4c(-c5cccnc5N)nc5cc(-c6cccnc6)cnc54)cc3)ccc2n1 [Example 244, N-(4-(2-(2-aminopyridin-3-yl)-6-(pyridin-3-yl)-3H-imidazo[4,5-b]pyridin-3-yl)benzyl)-2-methylquinoline-6-carboxamide] was tested. Which IC50 did it give?
Its IC50 is 0.022 µM.

For Cc1cnc2c(c1)nc(-c1cccnc1N)n2-c1ccc(CNC(=O)c2cccc(C(F)(F)F)c2)cc1 [Example 267, N-(4-(2-(2-aminopyridin-3-yl)-6-methyl-3H-imidazo[4,5-b]pyridin-3-yl)benzyl)-3-(trifluoromethyl)benzamide], which IC50 is on record?
The IC50 was 0.59 µM.

For Nc1ncccc1-c1nc2cc(Br)cnc2n1-c1ccc(CNS(=O)(=O)c2ccsc2)cc1 [Example 169, N-{4-[2-(2-aminopyridin-3-yl)-6-bromo-3H-imidazo[4,5-b]pyridin-3-yl]benzyl}thiophene-3-sulfonamide], which IC50 is on record?
Its IC50 is 0.19 µM.

How did the IC50 turn out when NC(=O)c1cccc(-c2ccc3nc(-c4cccnc4N)n(-c4ccc(C5(N)CCC5)cc4)c3n2)c1 [Example 365, 3-(3-(4-(1-aminocyclobutyl)phenyl)-2-(2-aminopyridin-3-yl)-3H-imidazo[4,5-b]pyridin-5-yl)benzamide] was run?
The IC50 was 0.003 µM.

Nc1ncccc1-c1nc2ccc(-c3ccc4c(c3)OCCO4)nc2n1-c1ccc(CNC(=O)c2cccc(F)c2)cc1 [Example 332, N-(4-(2-(2-aminopyridin-3-yl)-5-(2,3-dihydro-benzo[b][1,4]dioxin-6-yl)-3H-imidazo[4,5-b]pyridin-3-yl)benzyl)-3-fluorobenzamide] was tested. Which IC50 did it give?
The IC50 was 0.16 µM.

For Nc1ncccc1-c1nc2cc(-c3cccnc3)cnc2n1-c1ccc(CNS(=O)(=O)c2ccc(Cl)cc2)cc1 [Example 207, N-(4-(2-(2-aminopyridin-3-yl)-6-(pyridin-3-yl)-3H-imidazo[4,5-b]pyridin-3-yl)benzyl)-4-chlorobenzenesulfonamide], which IC50 is on record?
Its IC50 is 0.06 µM.

For Cc1cnc2c(c1)nc(-c1cccnc1N)n2-c1ccc(CNC(=O)c2ccc(C)c(F)c2)cc1 [Example 278, N-(4-(2-(2-aminopyridin-3-yl)-6-methyl-3H-imidazo[4,5-b]pyridin-3-yl)benzyl)-3-fluoro-4-methylbenzamide], which IC50 is on record?
Its IC50 is 0.12 µM.

With Cc1cnc2c(c1)nc(-c1cccnc1N)n2-c1ccc(CNC(=O)c2cccnc2F)cc1 [Example 274, N-(4-(2-(2-aminopyridin-3-yl)-6-methyl-3H-imidazo[4,5-b]pyridin-3-yl)benzyl)-2-fluoronicotinamide] as the molecule, how does the IC50 read?
The IC50 was 51 µM.

For Cc1cnc2c(c1)nc(-c1cccnc1N)n2-c1ccc(CNC(=O)c2ccc(N(C)C)cc2)cc1 [Example 222, N-(4-(2-(2-aminopyridin-3-yl)-6-methyl-3H-imidazo[4,5-b]pyridin-3-yl)benzyl)-4-(dimethylamino)benzamide], which IC50 is on record?
The IC50 was 0.043 µM.

Source: US8501770B2 (ArQule, Inc., priority 2009, dated 2013)
